Here are results for 15 compounds from patent publication US10047059B2, “Substituted quinoxalines for inhibiting kinase activity” (NEUPHARMA, INC., priority 2012, dated 2018).

The target of one assay is T1, BRAF (Homo sapiens, UniProt P15056).
T1 construct: purchased Invitrogen
Briefly: Z'-LYTE kinase inhibition assay against BRAF. It is filed as biochemical. Conditions: Z'-LYTE method. The method, then: (§1) Inhibitory activities Inhibitory activities of compounds against BRAF, and BRAF V600E were measured by Invitrogen using Z′-LYTE® Method as briefly described in the following. 4× Test compounds are dissolved in 1% DMSO. […] ATP solutions are diluted to a 4×ATP working concentration in Kinase Buffer (50 mM HEPES pH 7.5, 0.01% BRIJ-35, 10 mM MgCl2, 1 mM EGTA). Reaction started by 30-second shaking of mixture consisting of 2.5 μL 4× test compound, […] and 2.5 μL 4×ATP Solution on Bar-coded Corning, low volume NBS, black 384-well plate (Corning Cat. #3676). Then the mixture was incubated for 60-minute at room temperature for the kinase reaction, followed by addition of 5 μL of a 1:1024 dilution of development reagent A and 30-second plate shake. The mixture was then incubated for another 60-minute at room temperature for development reaction. Fluorescence was read by plate reader. IC50 was calculated by plotting the concentration of compound vs the percentage of inhibition in treated wells using GraphPad Prism 5.
(§2) Table 2 and 3 show % inhibition at 1 μM of several compounds of the invention against BRAF and BRAF V600E, respectively, using Z′-LYTE® method.

Another assay relates to A375 cells. Kind of assay: Inhibition of cancer cell growth, MTT or MTS assay, A375. It is filed as cell-based. The settings on record: Homo sapiens, A-375, 72 h incubation. The method, then:
(§3) Inhibition of cell growth by compounds was measured using MTT or MTS assay. Tumor cell lines were purchased from ATCC (American Type Culture Collection, Manassas, Va.). All cell lines were maintained in RPMI 1640 (Hyclone) supplemented with 10% fetal bovine serum (FBS, Hyclone), glutamine (2 mM, Hyclone), and antibiotics (penicillin 100 U/mL and streptomycin 50 μg/mL) at 37° C. in a humidified atmosphere of 5% CO2 in air. Taxol (as a positive control, Sigma) and compounds were dissolved in DMSO (Sigma), and the final concentration of DMSO in the medium was 1%. Tumor cells were plated in 96-well plates at densities of about 2000 (A375) or 4000 (A549 and Colo205) cells/well of a 96-well plate and allowed to adhere/grow for 24 h. They were then treated with various concentrations of drug and incubated for 72 h. For MTT method, medium was then removed by inverting and tapping the plates. 100 μL of MTT (0.5 mg/ml) was added to each well followed by an incubated at 37° C. for 4 h. MTT was then removed and 200 μL of DMSO was added to each well, and the ODs at 570 nm were measured after a 5 second shaking cycle in a 96-well spectrophotometer. For MTS method, 20 μL MTS (CellTiter 96 Aqueous One Solution, Promega) was added to each well followed by an incubated at 37° C. for 2-4 h, solutions were then directly put in a 96-well spectrophotometer, and the ODs at 490 nm were measured.
(§4) All concentrations of compounds were tested in triplicate and controls were averaged over 4 wells. IC50 was calculated by plotting the concentration of compound vs the percentage of inhibition in treated wells using GraphPad Prism 5. […] The scale utilized in Tables 7-9 is as follows: +++ less than 1000 nM; ++ between 1000 nM and 5000 nM; and + greater than 5000 nM. The scale utilized in […]
For orientation: Tetrazolium assays rely on reduction of a dye to a coloured formazan, in cell work by metabolically active cells.

Another assay concerns the target T2, KDR (VEGFR2) (Homo sapiens, UniProt P35968).
T2 construct: purchased Invitrogen
Briefly: Z'-LYTE kinase inhibition assay against KDR. It is filed as biochemical. Conditions: Z'-LYTE method. Here is the method: Inhibitory activities of compounds against KDR (VEGFR2) were also measured by Invitrogen using Z′-LYTE® Method as described above with the following modification. The 2×KDR (VEGFR2)/Tyr 01 mixture is prepared in 50 mM HEPES pH 7.5, 0.01% BRIJ-35, 10 mM MgCl2, 1 mM EGTA. The final 10 μL Kinase Reaction consists of 0.5-11.7 ng KDR (VEGFR2) and 2 μM Tyr 01 in 50 mM HEPES pH 7.5, 0.01% BRIJ-35, 10 mM MgCl2, 1 mM EGTA. After the 1 hour Kinase Reaction incubation, 5 μL of a 1:256 dilution of Development Reagent B is added.
The scale utilized in Table 6 is as follows: +++ less than 100 nM; and ++ greater than 100 nM

In another assay the target is T3, BRAF V600E (Homo sapiens, UniProt P15056, V600E).
T3 construct: purchased Invitrogen
T3 sequence (P15056 whole entry V600E): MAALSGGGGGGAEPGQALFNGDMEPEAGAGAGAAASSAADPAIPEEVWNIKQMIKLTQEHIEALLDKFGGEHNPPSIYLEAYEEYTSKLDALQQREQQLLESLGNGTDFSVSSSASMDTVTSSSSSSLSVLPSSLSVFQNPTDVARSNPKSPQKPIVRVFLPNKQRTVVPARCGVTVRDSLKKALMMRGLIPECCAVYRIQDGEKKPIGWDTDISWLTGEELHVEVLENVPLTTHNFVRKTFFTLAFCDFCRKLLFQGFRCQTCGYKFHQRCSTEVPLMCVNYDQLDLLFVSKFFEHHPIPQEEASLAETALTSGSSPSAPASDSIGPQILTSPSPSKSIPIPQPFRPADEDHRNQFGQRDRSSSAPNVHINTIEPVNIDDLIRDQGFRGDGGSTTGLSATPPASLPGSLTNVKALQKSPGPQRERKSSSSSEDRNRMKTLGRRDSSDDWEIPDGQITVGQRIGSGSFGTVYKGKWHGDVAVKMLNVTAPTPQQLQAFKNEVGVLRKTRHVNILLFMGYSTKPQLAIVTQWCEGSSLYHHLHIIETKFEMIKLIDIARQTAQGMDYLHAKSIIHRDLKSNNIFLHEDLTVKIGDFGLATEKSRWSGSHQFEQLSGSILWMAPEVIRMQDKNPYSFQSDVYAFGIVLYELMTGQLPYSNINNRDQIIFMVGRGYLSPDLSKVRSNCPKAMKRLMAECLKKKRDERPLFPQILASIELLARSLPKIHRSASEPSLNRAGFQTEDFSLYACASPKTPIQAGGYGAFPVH
Briefly: Z'-LYTE kinase inhibition assay against BRAF V600E. Type of assay: biochemical. The settings on record: % inhibition at 1 μM, Z'-LYTE method. Here is the method: as §1, §2
The scale utilized in Table 4 is as follows: +++ less than 100 nM; and ++ greater than 100 nM.

For the next assay, the system named is A549 cells. Kind of assay: Inhibition of cancer cell growth, MTT or MTS assay, A549. It is filed as cell-based. The settings on record: Homo sapiens, 72 h incubation. The method, then:
as §3, §4

A further assay concerns Colo205 cells. Briefly: Inhibition of cancer cell growth, MTT or MTS assay, Colo205. It is filed as cell-based. Conditions: Homo sapiens, COLO 205, 72 h incubation. Here is the method:
as §3, §4

T2 sequence (P35968 20-1356): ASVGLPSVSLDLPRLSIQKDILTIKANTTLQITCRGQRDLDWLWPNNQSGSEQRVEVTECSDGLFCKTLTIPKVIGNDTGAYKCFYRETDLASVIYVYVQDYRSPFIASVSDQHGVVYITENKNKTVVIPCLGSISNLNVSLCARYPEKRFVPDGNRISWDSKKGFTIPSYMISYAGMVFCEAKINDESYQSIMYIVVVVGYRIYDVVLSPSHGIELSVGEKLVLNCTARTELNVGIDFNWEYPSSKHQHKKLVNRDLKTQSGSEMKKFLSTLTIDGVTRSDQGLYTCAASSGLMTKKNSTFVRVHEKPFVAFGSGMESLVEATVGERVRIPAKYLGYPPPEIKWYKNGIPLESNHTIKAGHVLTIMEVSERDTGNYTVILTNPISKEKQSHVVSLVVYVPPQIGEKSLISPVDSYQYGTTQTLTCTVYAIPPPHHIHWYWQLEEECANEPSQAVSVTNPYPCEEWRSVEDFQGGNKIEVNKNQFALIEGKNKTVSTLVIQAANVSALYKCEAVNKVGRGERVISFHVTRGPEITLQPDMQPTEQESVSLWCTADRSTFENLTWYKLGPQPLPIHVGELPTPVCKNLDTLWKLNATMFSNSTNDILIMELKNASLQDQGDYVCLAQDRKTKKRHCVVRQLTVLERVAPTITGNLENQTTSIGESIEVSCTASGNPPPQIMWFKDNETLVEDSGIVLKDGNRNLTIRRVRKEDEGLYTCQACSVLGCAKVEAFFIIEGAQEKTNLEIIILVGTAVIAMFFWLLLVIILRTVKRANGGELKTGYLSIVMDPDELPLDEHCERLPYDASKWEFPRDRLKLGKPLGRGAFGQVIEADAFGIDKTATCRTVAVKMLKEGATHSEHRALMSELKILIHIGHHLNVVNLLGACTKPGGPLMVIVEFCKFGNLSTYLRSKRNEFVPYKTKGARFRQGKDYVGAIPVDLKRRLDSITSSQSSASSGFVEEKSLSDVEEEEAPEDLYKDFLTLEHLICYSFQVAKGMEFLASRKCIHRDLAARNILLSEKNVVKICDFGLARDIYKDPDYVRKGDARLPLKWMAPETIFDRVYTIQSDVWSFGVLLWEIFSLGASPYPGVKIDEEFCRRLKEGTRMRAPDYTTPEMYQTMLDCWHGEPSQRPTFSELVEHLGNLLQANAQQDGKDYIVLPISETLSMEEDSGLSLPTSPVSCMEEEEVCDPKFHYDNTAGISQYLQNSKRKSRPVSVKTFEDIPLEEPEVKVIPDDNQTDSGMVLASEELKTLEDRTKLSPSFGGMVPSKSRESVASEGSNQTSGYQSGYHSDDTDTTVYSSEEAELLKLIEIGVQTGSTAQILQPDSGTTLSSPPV
T1 sequence (P15056 whole entry): as the sequence (P15056 whole entry V600E) above, with E600V counted along it

For orientation: inhibition means the relative decrease from the control value, in per cent. High values mean a strong effect, low ones a weak effect. In general, IC50 refers to the concentration that inhibits the measured activity by half. The low end stands for greater potency in that assay, the high end for weaker potency in that assay. On to `O=C(Nc1cccc(F)c1)Nc1ccc(C(=O)c2ccc3ncc(N4CCNCC4)nc3c2)c(F)c1` [Compound C20, 1-(3-fluoro-4-(3-(piperazin-1-yl)quinoxaline-6-carbonyl)phenyl)-3-(3-fluorophenyl)urea], for which the inhibition at 1 µM is < 70% against BRAF, < 70% against KDR (VEGFR2) and > 89% on BRAF V600E. For the same compound, the concentration for half-maximal inhibition (IC50) with A375 cells was 1000 to 5000 nM; with A549 cells, > 5 µM.
As for `O=C(Nc1ccc(C(=O)c2ccc3ncc(N4CCNCC4)nc3c2)cc1)Nc1cccc(F)c1` [Compound C19, 1-(3-fluorophenyl)-3-(4-(3-(piperazin-1-yl)quinoxaline-6-carbonyl)phenyl)urea], the inhibition at 1 µM against BRAF is < 70%; on KDR (VEGFR2) it was < 70%; on BRAF V600E, > 89%. In addition, the IC50 lay within 1000 to 5000 nM in the assay on A375 cells and 1 to 5 µM in the assay with A549 cells.
As to `N#Cc1ccc(CC(=O)Nc2ccc(C(=O)c3ccc4ncc(N5CCNCC5)nc4c3)c(F)c2)cc1C(F)(F)F` [Compound C26, 2-(4-cyano-3-(trifluoromethyl)phenyl)-N-(3-fluoro-4-(3-(piperazin-1-yl)quinoxaline-6-carbonyl)phenyl)acetamide], the inhibition at 1 µM against BRAF is < 70%; against KDR (VEGFR2), > 89%; against BRAF V600E, > 89%. In addition, the IC50 in the assay on A375 cells is < 1000 nM; against KDR (VEGFR2) it was < 100 nM; in the assay with A549 cells, < 1 µM.
Regarding `N#Cc1ccc(NC(=O)Nc2ccc(C(=O)c3ccc4ncc(N5CCNCC5)nc4c3)cc2)cc1C(F)(F)F` [Compound C16, 1-(4-cyano-3-(trifluoromethyl)phenyl)-3-(4-(3-(piperazin-1-yl)quinoxaline-6-carbonyl)phenyl)urea], the inhibition at 1 µM at BRAF is < 70%; at KDR (VEGFR2), > 89%; on BRAF V600E, > 89%. Also, the IC50 in the assay with A375 cells was < 1000 nM; in the assay with Colo205 cells it was > 5 µM; against KDR (VEGFR2), > 100 nM; with A549 cells it was 1 to 5 µM.
With `O=C(Nc1ccc(F)cc1)Nc1ccc(C(=O)c2ccc3ncc(N4CCNCC4)nc3c2)cc1` [Compound C10, 1-(4-fluorophenyl)-3-(4-(3-(piperazin-1-yl)quinoxaline-6-carbonyl)phenyl)urea], the inhibition at 1 µM on BRAF is < 70%; on KDR (VEGFR2), < 70%; at BRAF V600E it was > 89%. Also, the IC50 was in the range of 1000 to 5000 nM in the assay with A375 cells and 1 to 5 µM with A549 cells.
In the case of `O=C(Nc1ccc(C(=O)c2ccc3nccnc3c2)cc1)Nc1cccc(F)c1` [Compound C02, 1-(3-fluorophenyl)-3-(4-(quinoxaline-6-carbonyl)phenyl)urea], the inhibition at 1 µM at BRAF, against KDR (VEGFR2) and against BRAF V600E was < 70% throughout. Besides, the IC50 was in the range of 1000 to 5000 nM in the assay on A375 cells and 1 to 5 µM in the assay on A549 cells.
Turning to `O=C(Nc1ccc(C(=O)c2ccc3ncc(N4CCNCC4)nc3c2)cc1)Nc1ccc(C(F)(F)F)cc1` [Compound C13, 1-(4-(3-(piperazin-1-yl)quinoxaline-6-carbonyl)phenyl)-3-(4-(trifluoromethyl)phenyl)urea], the inhibition at 1 µM at BRAF was < 70%; against KDR (VEGFR2), < 70%; at BRAF V600E it was > 89%. The IC50 was < 1000 nM in the assay on A375 cells and 1 to 5 µM in the assay with A549 cells.
As to `O=C(Nc1ccc(C(=O)c2ccc3ncc(C4CCNCC4)nc3c2)cc1)Nc1ccc(F)c(C(F)(F)F)c1` [Compound C28, 1-(4-fluoro-3-(trifluoromethyl)phenyl)-3-(4-(3-(piperidin-4-yl)quinoxaline-6-carbonyl)phenyl)urea], the inhibition at 1 µM was < 70% against BRAF, < 70% at KDR (VEGFR2) and 70 to 89% on BRAF V600E. The figures for the IC50 in the assay on A375 cells and in the assay with A549 cells were 1000 to 5000 nM and > 5 µM, respectively.
For `O=C(Nc1ccc(F)cc1)Nc1ccc(C(=O)c2ccc3ncc(N4CCOCC4)nc3c2)cc1` [Compound C05, 1-(4-fluorophenyl)-3-(4-(3-morpholinoquinoxaline-6-carbonyl)phenyl)urea], the inhibition at 1 µM at BRAF, at KDR (VEGFR2) and at BRAF V600E was < 70% throughout. The IC50 in the assay with A375 cells is > 5000 nM; with A549 cells it was > 5 µM.
As to `O=C(Nc1cccc(C(F)(F)F)c1)Nc1ccc(C(=O)c2ccc3ncc(N4CCOCC4)nc3c2)c(F)c1` [Compound C24, 1-(3-fluoro-4-(3-morpholinoquinoxaline-6-carbonyl)phenyl)-3-(3-(trifluoromethyl)phenyl)urea], the IC50 with A375 cells lay in the range of 1000 to 5000 nM; in the assay with A549 cells, 1 to 5 µM. In addition, the inhibition at 1 µM against KDR (VEGFR2) is 70 to 89%; against BRAF V600E, < 70%.
The like results for `Cn1ccc(NC(=O)Nc2ccc(C(=O)c3ccc4ncc(N5CCNCC5)nc4c3)c(F)c2)n1` [Compound C31, 1-(3-fluoro-4-(3-(piperazin-1-yl)quinoxaline-6-carbonyl)phenyl)-3-(1-methyl-1H-pyrazol-3-yl)urea] were, in that order, 1000 to 5000 nM, > 5 µM, < 70% and 70 to 89%.
The corresponding values for `N#Cc1cnc2ccc(C(=O)c3ccc(NC(=O)Nc4cccc(C(F)(F)F)c4)cc3F)cc2n1` [Compound C29, 1-(4-(3-cyanoquinoxaline-6-carbonyl)-3-fluorophenyl)-3-(3-(trifluoromethyl)phenyl)urea] are 1000 to 5000 nM, 1 to 5 µM, < 70% and < 70%.
Regarding `O=C(Nc1ccc(C(=O)c2ccc3ncc(N4CCOCC4)nc3c2)cc1)Nc1cccc(Cl)c1` [Compound C03, 1-(3-chlorophenyl)-3-(4-(3-morpholinoquinoxaline-6-carbonyl)phenyl)urea], the inhibition at 1 µM at BRAF, against KDR (VEGFR2) and on BRAF V600E was < 70% in each case. Besides, the values for the IC50 in the assay with A375 cells and in the assay on A549 cells were 1000 to 5000 nM and 1 to 5 µM, respectively.
As for `O=C(Nc1ccc(Cl)cc1)Nc1ccc(C(=O)c2ccc3ncc(N4CCOCC4)nc3c2)cc1` [Compound C04, 1-(4-chlorophenyl)-3-(4-(3-morpholinoquinoxaline-6-carbonyl)phenyl)urea], the inhibition at 1 µM on BRAF, against KDR (VEGFR2) and against BRAF V600E was < 70% throughout. This compound also displayed an IC50 in the assay on A549 cells of 1 to 5 µM.
As to `O=C(Nc1ccc(C(=O)c2ccc3ncc(C4CCNCC4)nc3c2)cc1)Nc1cccc(C(F)(F)F)c1` [Compound C27, 1-(4-(3-(piperidin-4-yl)quinoxaline-6-carbonyl)phenyl)-3-(3-(trifluoromethyl)phenyl)urea], the values for the IC50 in the assay on A375 cells and with A549 cells were > 5000 nM and > 5 µM, respectively. Moreover, the inhibition at 1 µM was < 70% on KDR (VEGFR2) and 70 to 89% at BRAF V600E.
